The values that follow are results of earlier work, collected in patent US20070015720A1, “Modulation of endogenous AICAR levels for the treatment of diabetes and obesity” (CytRx Corporation, priority 2005, published 2007).

SMILES strings stand for the structures.

The subject of data set [1] is obese Zucker (fa/fa) rats. As to conditions: long term treatment, high doses.
The conditions of data set [2]: mice, murine pouch model of inflammation.
The conditions of data set [3]: low dose, psoriasis patients, day of dosing.

As for `NC(=O)c1ncn([C@@H]2O[C@H](CO)[C@@H](O)[C@H]2O)c1N` [AICAR, 5-aminoimidazole-4-carboxamide ribonucleoside], in data set [1], the “fasting concentrations of glucose and insulin” value is listed as “decrease”; the “plasma triglyceride and free fatty acid levels” value was “reduce”; the systolic blood pressure result is listed as “decrease”. Besides, the adipocyte differentiation result in the data set with adipocytes is reported as “inhibits adipocyte differentiation at an early stage”. The “non-insulin stimulated glucose uptake” value with 3T3L1 adipocytes is “increase”.
Consider `CN(Cc1cnc2nc(N)nc(N)c2n1)c1ccc(C(=O)N[C@@H](CCC(=O)O)C(=O)O)cc1` [methotrexate], for which the “increase of AICAR-monophosphate in splenocytes” value in data set [2] is reported as “three-fold”. For the same compound, the “urinary excretion of aminoimidazole carboxamide (AICA)” value in data set [3] was “statistically significant increase”.
Turning to `O=C(O)c1cc(/N=N/c2ccc(S(=O)(=O)Nc3ccccn3)cc2)ccc1O` [sulfasalazine], in data set [2], the “increase of AICAR-monophosphate in splenocytes” value was “three-fold”.
